Measured values: patent US20250295657A1, “Methods and Compositions for Treatment of Inflammation and Inflammatory Conditions” (University of Pittsburgh - Of the Commonwealth System of …, priority 2022, published 2025)

Test system: pseudotyped SARS-CoV-2 (D614G Spike)
Assay type: cell-based

For `O=C(OCc1cc(=O)oc2cc(O)c(O)cc12)c1nn(-c2ccccc2)c(=O)c2ccccc12` [compound 958], the “pseudotyped SARS-CoV-2 infection (D614G Spike)” value was “prevent pseudotyped SARS-CoV-2 infection”.
